# Patent publication US20100173835A1, “Peptides for Treatment of Obesity” (Novo Nordisk A/S, priority 2008, published 2010)
# Like-named read-outs stand apart in the source and are kept apart here. *1 amine or outer side, *2 acyl side, *3 side chain or, on linkers, in order; H or OH if unused. Where a SMILES comes first, the peptide text is derived from it. Bridges are numbered along the chain shown (N, C = ends). Side-chain parts run from the residue outwards. [ ]: non-standard residue; d: D form. The star is where a group is joined. Palmitoyl(16-(5-tetrazolyl)) = O=C(CCCCCCCCCCCCCCCc1nnn[nH]1)*; C18 diacid = O=C(O)CCCCCCCCCCCCCCCCC(=O)*; γGlu = O=C(O)[C@H](CCC(=O)[*:2])N[*:1]; Hyp = O=C(O)[C@@H]1C[C@@H](O)CN1; NTA = O=C(O)CN(CC(=O)O)CC(=O)*; Nle = CCCC[C@H](N)C(=O)O; Orn = NCCC[C@H](N)C(=O)O; Dap = NC[C@H](N)C(=O)O; AEEA = NCCOCCOCC(=O)O
# Assays:
# [1] = tested on: ad libitum fed rat model; experiment: Assay (I) efficacy testing on appetite, ad libitum fed rat model; assay type: in vivo
# Method: Assay (I)—Experimental protocol for efficacy testing on appetite with MC4 analogues, using an ad libitum fed rat model. TAC:SPRD @mol rats or Wistar rats from M&B Breeding and Research Centre A/S, Denmark are used for the experiments. The rats have a body weight 200-250 g at the start of experiment. The rats arrive at least 10-14 days before start of experiment with a body weight of 180-200 g. Each dose of compound is tested in a group of 8 rats. […] When the animals arrive they are housed individually in a reversed light/dark phase (lights off 7:30 am, lights on 7:30 pm), meaning that lights are off during daytime and on during nighttime. […] During this period the animals are handled at least 3 times. The experiment is conducted in the rats' home cages. Immediately before dosing the rats are randomised to the various treatment groups (n 8) by body weight. They are dosed according to body weight at between 7:00 am and 7:45 am, with a 1-3 mg/kg solution administered intraperitoneally (ip), orally (po) or subcutaneously (sc). The time of dosing is recorded for each group. After dosing, the rats are returned to their home cages, where they then have access to food and water. […] At the end of the experimental session, the animals are euthanised. The individual data are recorded in Microsoft excel sheets. Outliers are excluded after applying the Grubbs statistical evaluation test for outliers, and the result is presented graphically using the GraphPad Prism program.
# [2] = molecular target: T1, MC1 receptor (Homo sapiens, UniProt Q01726); experiment: Assay (IV) Melanocortin Receptor 1 (MC1) binding assay
# T1 construct: expressed in transfected cells
# T1 sequence (Q01726 whole entry): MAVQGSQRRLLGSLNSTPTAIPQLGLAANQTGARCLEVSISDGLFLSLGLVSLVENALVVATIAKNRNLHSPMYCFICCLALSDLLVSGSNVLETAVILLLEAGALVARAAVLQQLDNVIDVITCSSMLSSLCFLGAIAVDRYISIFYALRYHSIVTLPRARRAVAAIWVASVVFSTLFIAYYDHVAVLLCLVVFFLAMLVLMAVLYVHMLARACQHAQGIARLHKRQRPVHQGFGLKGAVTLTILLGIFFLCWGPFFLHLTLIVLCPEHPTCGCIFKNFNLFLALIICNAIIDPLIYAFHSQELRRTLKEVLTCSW
# Outline: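 Competition binding used BHK cell membranes stably expressing MC1 (25 μg/ml) with 22 pM final ^125NDP-α-MSH in 25 mM HEPES pH 7.4, CaCl2, MgSO4, EDTA, 0.1% HSA (or ovalbumin), 0.005% Tween 20. After 90 min at 30° C., bound radioligand was filtered and counted, with binding curves fitted by non-linear regression.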
# [3] = molecular target: T2, human MC4 receptor (Homo sapiens, UniProt P32245); experiment: Assay (V) Melanocortin Receptor 4 (MC4) binding assay; settings: 125NDP-α-MSH binding, BHK cell membranes
# T2 construct: expressed in transfected cells
# T2 sequence (P32245 whole entry): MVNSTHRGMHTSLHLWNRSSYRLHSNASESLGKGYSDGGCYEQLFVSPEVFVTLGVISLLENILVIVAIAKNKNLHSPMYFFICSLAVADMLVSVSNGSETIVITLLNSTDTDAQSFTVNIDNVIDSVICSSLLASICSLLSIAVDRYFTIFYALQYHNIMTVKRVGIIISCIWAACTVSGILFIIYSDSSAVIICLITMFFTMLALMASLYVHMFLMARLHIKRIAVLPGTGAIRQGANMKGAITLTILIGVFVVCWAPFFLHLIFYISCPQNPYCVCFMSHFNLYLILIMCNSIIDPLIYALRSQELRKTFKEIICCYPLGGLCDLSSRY
# Outline: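 BHK membranes stably expressing human MC4 receptor were incubated with ^125NDP-α-MSH (≈79 pM final) and compound for 2 h at 25 °C, pH 7.0 HEPES buffer with HSA or ovalbumin. Filter-bound radioactivity was gamma counted. Binding curves were fitted by non-linear regression.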
# [4] = Solubility data of compounds in water over the pH range; assay type: physicochemical
# [5] = 125NDP-α-MSH binding, BHK cell membranes, read-out: Assay (IV) MC1 Ki
smiles,measurement,setting,value
"CCCC[C@H](NC(=O)[C@H](CCCCNC(=O)CN(CC(=O)O)CC(=O)O)NC(=O)[C@H](Cc1c[nH]cn1)NC(=O)[C@H](CCC(N)=O)NC(=O)[C@H](CO)NC(=O)CNC(=O)COCCOCCNC(=O)CCCCCCCCCCCCCCCc1nnn[nH]1)C(=O)N[C@H]1CCC(=O)NCCCC[C@@H](C(N)=O)NC(=O)[C@H](Cc2c[nH]c3ccccc23)NC(=O)[C@H](CCCNC(=N)N)NC(=O)[C@@H](Cc2ccccc2)NC(=O)[C@@H]2C[C@@H](O)CN2C1=O [Example 1, (2-{2-[16-(Tetrazol-5-yl)hexadecanoylamino]ethoxy}ethoxy)acetyl-Gly-Ser-Gln-His-Lys(BCMA)-Nle-c[Glu-Hyp-D-Phe-Arg-Trp-Lys]-NH2] ({Palmitoyl(16-(5-tetrazolyl))-AEEA}-GSQHK(NTA)[Nle]E[Hyp][dF]RWK-NH2; lactam 7-12)",Food consumption (% of vehicle) 24 h,[1]; dosing 3 mg/kg,65 % of vehicle
same,Food consumption (% of vehicle) 48 h,[1]; dosing 3 mg/kg,72 % of vehicle
same,Ki,[2]; [5],> 10000 nM
same,Ki,[3]; read-out: Assay (V) MC4 [Ki],0.4 nM
"CCCC[C@H](NC(=O)[C@H](CNC(=O)[C@H](Cc1c[nH]cn1)NC(=O)[C@H](CCC(N)=O)NC(=O)[C@H](CO)NC(=O)CNC(=O)COCCOCCNC(=O)CCCCCCCCCCCCCCCc1nnn[nH]1)NC(=O)CN(CC(=O)O)CC(=O)O)C(=O)N[C@H]1CCC(=O)NCCCC[C@@H](C(N)=O)NC(=O)[C@H](Cc2c[nH]c3ccccc23)NC(=O)[C@H](CCCNC(=N)N)NC(=O)[C@@H](Cc2ccccc2)NC(=O)[C@@H]2C[C@@H](O)CN2C1=O [Example 2, (2-{2-[16-(Tetrazol-5-yl)hexadecanoylamino]ethoxy}ethoxy)acetyl-Gly-Ser-Gln-His-β-Dap(BCMA)-Nle-c[Glu-Hyp-D-Phe-Arg-Trp-Lys]-NH2] ({NTA}-[Dap]([His-Gln-Ser-Gly-AEEA-Palmitoyl(16-(5-tetrazolyl))])[Nle]E[Hyp][dF]RWK-NH2; lactam 3-8)",Food consumption (% of vehicle) 24 h,[1]; dosing 1 mg/kg,60 % of vehicle
same,Food consumption (% of vehicle) 48 h,[1]; dosing 1 mg/kg,71 % of vehicle
same,Ki,[2]; [5],5570 nM
same,Ki,[3]; read-out: Assay (V) MC4 [Ki],3.43 nM
same,solubility at 3 days,"[4]; pH 3.02, pH 3.02, read-out: Conc (solubility in water)",320 µM
same,solubility at 3 days,"[4]; pH 3.84, pH 3.84, read-out: Conc (solubility in water)",421 µM
same,solubility at 3 days,"[4]; pH 4.3, pH 4.3, read-out: Conc (solubility in water)",216 µM
same,solubility at 3 days,"[4]; pH 4.64, pH 4.64, read-out: Conc (solubility in water)",49 µM
same,solubility at 3 days,"[4]; pH 5.22, pH 5.22, read-out: Conc (solubility in water)",13 µM
same,solubility at 3 days,"[4]; pH 6.55, pH 6.55, read-out: Conc (solubility in water)",14 µM
same,solubility at 3 days,"[4]; pH 7.2, pH 7.2, read-out: Conc (solubility in water)",122 µM
same,solubility at 3 days,"[4]; pH 7.36, pH 7.36, read-out: Conc (solubility in water)",251 µM
same,solubility at 3 days,"[4]; pH 7.53, pH 7.53, read-out: Conc (solubility in water)",320 µM
same,solubility at 3 days,"[4]; pH 7.81, pH 7.81, read-out: Conc (solubility in water)",77 µM
"CCCC[C@H](NC(=O)[C@H](CCCCNC(=O)CN(CC(=O)O)CC(=O)O)NC(=O)[C@H](CO)NC(=O)[C@H](CCC(N)=O)NC(=O)[C@H](CO)NC(=O)CNC(=O)COCCOCCNC(=O)CCCCCCCCCCCCCCCc1nnn[nH]1)C(=O)N[C@H]1CCC(=O)NCCCC[C@@H](C(N)=O)NC(=O)[C@H](Cc2c[nH]c3ccccc23)NC(=O)[C@H](CCCNC(=N)N)NC(=O)[C@@H](Cc2ccccc2)NC(=O)[C@@H]2C[C@@H](O)CN2C1=O [Example 15, (2-{2-[16-(Tetrazol-5-yl)hexadecanoylamino]ethoxy}ethoxy)acetyl-Gly-Ser-Gln-Ser-Lys(BCMA)-Nle-c[Glu-Hyp-D-Phe-Arg-Trp-Lys]-NH2] ({Palmitoyl(16-(5-tetrazolyl))-AEEA}-GSQSK(NTA)[Nle]E[Hyp][dF]RWK-NH2; lactam 7-12)",Food consumption (% of vehicle) 24 h,[1]; dosing 1 mg/kg,74 % of vehicle
same,Food consumption (% of vehicle) 48 h,[1]; dosing 1 mg/kg,85 % of vehicle
same,Ki,[2]; [5],> 10000 nM
same,Ki,[3]; read-out: Assay (V) MC4 [Ki],3.15 nM
"CCCC[C@H](NC(=O)[C@H](CCCNC(=O)CN(CC(=O)O)CC(=O)O)NC(=O)[C@H](Cc1c[nH]cn1)NC(=O)[C@H](CCC(N)=O)NC(=O)[C@H](CO)NC(=O)CNC(=O)COCCOCCNC(=O)CCCCCCCCCCCCCCCc1nnn[nH]1)C(=O)N[C@H]1CCC(=O)NCCCC[C@@H](C(N)=O)NC(=O)[C@H](Cc2c[nH]c3ccccc23)NC(=O)[C@H](CCCNC(=N)N)NC(=O)[C@@H](Cc2ccccc2)NC(=O)[C@@H]2C[C@@H](O)CN2C1=O [Example 8, (2-{2-[16-(Tetrazol-5-yl)hexadecanoylamino]ethoxy}ethoxy)acetyl-Gly-Ser-Gln-His-Orn(BCMA)-Nle-c[Glu-Hyp-D-Phe-Arg-Trp-Lys]-NH2] ({Palmitoyl(16-(5-tetrazolyl))-AEEA}-GSQH[Orn](NTA)[Nle]E[Hyp][dF]RWK-NH2; lactam 7-12)",Ki,[2],> 10000 nM
same,Ki,[3]; Assay (V) MC4 [Ki] (nM),0.9 nM
same,solubility at 3 days,"[4]; pH 2.96, pH 2.96, read-out: Conc (solubility in water)",716 µM
same,solubility at 3 days,"[4]; pH 4.1, pH 4.1, read-out: Conc (solubility in water)",536 µM
same,solubility at 3 days,"[4]; pH 4.24, pH 4.24, read-out: Conc (solubility in water)",389 µM
same,solubility at 3 days,"[4]; pH 4.87, pH 4.87, read-out: Conc (solubility in water)",34 µM
same,solubility at 3 days,"[4]; pH 5.9, pH 5.9, read-out: Conc (solubility in water)",10 µM
same,solubility at 3 days,"[4]; pH 6.7, pH 6.7, read-out: Conc (solubility in water)",26 µM
same,solubility at 3 days,"[4]; pH 7.45, pH 7.45, read-out: Conc (solubility in water)",271 µM
same,solubility at 3 days,"[4]; pH 7.47, pH 7.47, read-out: Conc (solubility in water)",116 µM
same,solubility at 3 days,"[4]; pH 7.75, pH 7.75, read-out: Conc (solubility in water)",280 µM
same,solubility at 3 days,"[4]; pH 7.95, pH 7.95, read-out: Conc (solubility in water)",546 µM
"CCCC[C@H](NC(=O)[C@H](CNC(=O)CN(CC(=O)O)CC(=O)O)NC(=O)[C@H](Cc1c[nH]cn1)NC(=O)[C@H](CCC(N)=O)NC(=O)[C@H](CO)NC(=O)CNC(=O)COCCOCCNC(=O)COCCOCCNC(=O)COCCOCCNC(=O)COCCOCCNC(=O)CCCCCCCCCCCCCCCc1nnn[nH]1)C(=O)N[C@H]1CCC(=O)NCCCC[C@@H](C(N)=O)NC(=O)[C@H](Cc2c[nH]c3ccccc23)NC(=O)[C@H](CCCNC(=N)N)NC(=O)[C@@H](Cc2ccccc2)NC(=O)[C@@H]2C[C@@H](O)CN2C1=O [Example 16, (2-{2-[2-(2-{2-[2-(2-{2-[2-(2-{2-[16-(Tetrazol-5-yl)hexadecanoylamino]ethoxy}ethoxy)acetylamino]ethoxy}ethoxy)acetylamino]ethoxy}ethoxy)acetylamino]ethoxy}ethoxy)acetyl-Gly-Ser-Gln-His-Dap(BCMA)-Nle-c[Glu-Hyp-D-Phe-Arg-Trp-Lys]-NH2] ({Palmitoyl(16-(5-tetrazolyl))-AEEA-AEEA-AEEA-AEEA}-GSQH[Dap](NTA)[Nle]E[Hyp][dF]RWK-NH2; lactam 7-12)",Ki,[2]; [5],> 10000 nM
same,Ki,[3]; read-out: Assay (V) MC4 [Ki],2.75 nM
same,solubility at 3 days,[4]; pH 3.18,531 µM
same,solubility at 3 days,[4]; pH 4.32,515 µM
same,solubility at 3 days,[4]; pH 4.67,492 µM
same,solubility at 3 days,[4]; pH 4.89,450 µM
same,solubility at 3 days,[4]; pH 4.98,347 µM
same,solubility at 3 days,[4]; pH 5.75,41 µM
same,solubility at 3 days,[4]; pH 6.37,51 µM
same,solubility at 3 days,[4]; pH 6.66,93 µM
same,solubility at 3 days,[4]; pH 7.3,454 µM
same,solubility at 3 days,[4]; pH 7.66,596 µM
"CCCC[C@H](NC(=O)[C@H](CNC(=O)CN(CC(=O)O)CC(=O)O)NC(=O)[C@H](Cc1c[nH]cn1)NC(=O)[C@H](CCC(N)=O)NC(=O)[C@H](CO)NC(=O)CNC(=O)COCCOCCNC(=O)COCCOCCNC(=O)CC[C@H](NC(=O)CCCCCCCCCCCCCCCCC(=O)O)C(=O)O)C(=O)N[C@H]1CCC(=O)NCCCC[C@@H](C(N)=O)NC(=O)[C@H](Cc2c[nH]c3ccccc23)NC(=O)[C@H](CCCNC(=N)N)NC(=O)[C@@H](Cc2ccccc2)NC(=O)[C@@H]2C[C@@H](O)CN2C1=O [Example 18, (2-{2-[2-(2-{2-[(S)-4-Carboxy-4-(17-carboxyheptadecanoylamino)butanoylamino]ethoxy}ethoxy)acetylamino]ethoxy}ethoxy)acetyl-Gly-Ser-Gln-His-Dap(BCMA)-Nle-c[Glu-Hyp-D-Phe-Arg-Trp-Lys]-NH2] ({C18 diacid-γGlu-AEEA-AEEA}-GSQH[Dap](NTA)[Nle]E[Hyp][dF]RWK-NH2; lactam 7-12)",Ki,[2]; [5],> 10000 nM
same,Ki,[3]; read-out: Assay (V) MC4 [Ki],5.35 nM
same,solubility at 3 days,[4]; pH 3.7,391 µM
same,solubility at 3 days,[4]; pH 5.2,25 µM
same,solubility at 3 days,[4]; pH 5.96,78 µM
same,solubility at 3 days,[4]; pH 6.56,249 µM
same,solubility at 3 days,[4]; pH 6.73,342 µM
same,solubility at 3 days,[4]; pH 6.95,382 µM
same,solubility at 3 days,[4]; pH 7.07,485 µM
same,solubility at 3 days,[4]; pH 7.51,498 µM
